Results as given in patent publication US10634663B2, “Determination of binding constants by means of equilibrium shifting” (Sovicell GmbH, priority 2014, dated 2020).

Tested on: Human plasma
Experiment: Equilibrium shifting: dissociation constant for soluble target and fraction bound to whole human plasma
Experimental: Determination of the affinity or dissociation constants is carried out in an advantageous embodiment according to equation I:
[formula] wherein a plurality of binding constant values for KD^H and KD^P are first inserted into the equation and the respective APA concentrations to be expected for these values are calculated. The calculated APA concentrations are then compared with the measured APA concentration. In a further step, the smallest deviation between the calculated APA concentration and the measured APA concentration is determined by means of a numerical optimization method, preferably the “least squares” optimization method, and the formula γ=(APAmeasured−APAcalculated)^2. The lowest value for the deviation is selected from these deviations. […]
10 μL each of a 10 to 2000 μM stock solution of the test substances is added to the cavities. […] The concentration in the supernatant is determined by means of suitable methods, such as LC/MS/MS or scintillation counting. The unbound fraction of the substance is determined in cavities with the immobilized target relative to the reference samples. This obviates the need for calibration, as long as the signal to concentration ratio for the test substances and the quantitation system used follow a linear course. […]

fraction of the peptide bound to whole human plasma (undiluted) (calculated from KD^P and [P] 600 μM): 98.8%
peptide dissolved in the plasma in free, or unbound, form (whole human plasma (undiluted)): 1.2%
SMILES: CCCCCCCCCCCCCCCC(=O)N[C@@H](CCC(=O)NCCCC[C@H](NC(=O)[C@H](C)NC(=O)[C@H](C)NC(=O)[C@H](CCC(N)=O)NC(=O)CNC(=O)[C@H](CCC(=O)O)NC(=O)[C@H](CC(C)C)NC(=O)[C@H](Cc1ccc(O)cc1)NC(=O)[C@H](CO)NC(=O)[C@H](CO)NC(=O)[C@@H](NC(=O)[C@H](CC(=O)O)NC(=O)[C@H](CO)NC(=O)[C@@H](NC(=O)[C@H](Cc1ccccc1)NC(=O)[C@@H](NC(=O)CNC(=O)[C@H](CCC(=O)O)NC(=O)[C@H](C)NC(=O)[C@@H](N)Cc1cnc[nH]1)[C@@H](C)O)[C@@H](C)O)C(C)C)C(=O)N[C@@H](CCC(=O)O)C(=O)N[C@@H](Cc1ccccc1)C(=O)N[C@H](C(=O)N[C@@H](C)C(=O)N[C@@H](Cc1c[nH]c2ccccc12)C(=O)N[C@@H](CC(C)C)C(=O)N[C@H](C(=O)N[C@@H](CCCNC(=N)N)C(=O)NCC(=O)N[C@@H](CCCNC(=N)N)C(=O)NCC(=O)O)C(C)C)[C@@H](C)CC)C(=O)O [liraglutide]
